In ChEMBL document CHEMBL1201862, “PubChem BioAssay data set” (2004):
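Interpolation was linear, between the two tested concentrations surrounding the appropriate level; five concentrations were tested over 48 hours in 96-well plates. At the GI50, growth is halved.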 Calls of active or inactive are those of the source. Cut-off read from the data, not from the text of the source: active = GI50 up to about 1.1 µM and inactive = higher.

Experiments:
Experiment in all cases: growth of human tumour cells (NCI), 48 h
ACHN = test system: ACHN
RXF 393 = test system: RXF 393
HCC 2998 = test system: HCC 2998
K562 = test system: K562
NCI/ADR-RES = test system: NCI/ADR-RES
MDA-MB-231 = test system: MDA-MB-231
SW-620 = test system: SW-620
NCI-H23 = test system: NCI-H23
Hs-578T = test system: Hs-578T
OVCAR-5 = test system: OVCAR-5
PC-3 = test system: PC-3
BT-549 = test system: BT-549
UACC-62 = test system: UACC-62
SK-MEL-2 = test system: SK-MEL-2
SF-539 = test system: SF-539
IGROV-1 = test system: IGROV-1
HCT-116 = test system: HCT-116

| Compound | GI50 (ACHN) | GI50 (RXF 393) | GI50 (HCC 2998) | GI50 (K562) | GI50 (NCI/ADR-RES) | GI50 (MDA-MB-231) | GI50 (SW-620) | GI50 (NCI-H23) | GI50 (Hs-578T) | GI50 (OVCAR-5) | GI50 (PC-3) | GI50 (BT-549) | GI50 (UACC-62) | GI50 (SK-MEL-2) | GI50 (SF-539) | GI50 (IGROV-1) | GI50 (HCT-116) |
| --- | --- | --- | --- | --- | --- | --- | --- | --- | --- | --- | --- | --- | --- | --- | --- | --- | --- |
| COc1ccc(/C=N/NC(=O)O)cc1 | > 100 µM (inactive) | > 100 µM (inactive) | 88.5 µM (inactive) | > 100 µM (inactive) | > 100 µM (inactive) | > 100 µM (inactive) | > 100 µM (inactive) | > 100 µM (inactive) | > 100 µM (inactive) | > 100 µM (inactive) | > 100 µM (inactive) | > 100 µM (inactive) | > 100 µM (inactive) | > 100 µM (inactive) | > 100 µM (inactive) | > 100 µM (inactive) | > 100 µM (inactive) |
| OC(c1cc(C23CC4CC(CC(C4)C2)C3)nc2c(Cl)cc(Cl)cc12)C1CCCCN1 (stereo not drawn) | 1.69 µM (inactive) | 1.6 µM (inactive) | 0.344 µM (active) | 1.51 µM (inactive) | 2.06 µM (inactive) | 1.82 µM (inactive) | 1.57 µM (inactive) | 1.85 µM (inactive) | 2.03 µM (inactive) | 1.79 µM (inactive) | 1.62 µM (inactive) | 2.02 µM (inactive) | 1.76 µM (inactive) | 1.87 µM (inactive) | 2.13 µM (inactive) | 1.77 µM (inactive) | 1.36 µM (inactive) |
| O=C(NCCCNCCCCNCCCNC(=O)c1cc(-c2ccccc2)nc2ccccc12)c1cc(-c2ccccc2)nc2ccccc12 | 18.5 µM (inactive) | 3.69 µM (inactive) | 2.01 µM (inactive) | 2.14 µM (inactive) | 28.4 µM (inactive) | 7.06 µM (inactive) | 2.62 µM (inactive) | 3 µM (inactive) | 1.75 µM (inactive) | 2.05 µM (inactive) | 2.12 µM (inactive) | 3.13 µM (inactive) | 2.16 µM (inactive) | 1.62 µM (inactive) | 1.9 µM (inactive) | 2.16 µM (inactive) | 3.09 µM (inactive) |
| Cc1c(-c2ccccc2)c(C#N)c2nnn(-c3cccc(Cl)c3)c(=O)n12 | 53.2 µM (inactive) | 31.2 µM (inactive) | 78.7 µM (inactive) | 50.5 µM (inactive) | > 100 µM (inactive) | 25.1 µM (inactive) | 46.8 µM (inactive) | > 100 µM (inactive) | > 100 µM (inactive) | > 100 µM (inactive) | 26.5 µM (inactive) | 88.7 µM (inactive) | > 100 µM (inactive) | 27.7 µM (inactive) | 32.9 µM (inactive) | 54.8 µM (inactive) | 70 µM (inactive) |
| O=C(O)Cc1ccccc1 [PHENYLACETIC ACID] | > 100 µM (inactive) | > 100 µM (inactive) | > 100 µM (inactive) | > 100 µM (inactive) | > 100 µM (inactive) | > 100 µM (inactive) | > 100 µM (inactive) | > 100 µM (inactive) | > 100 µM (inactive) | > 100 µM (inactive) | > 100 µM (inactive) | > 1000 µM (inactive) | > 100 µM (inactive) | > 100 µM (inactive) | > 100 µM (inactive) | > 100 µM (inactive) | > 100 µM (inactive) |
| Nc1ccccc1SCc1csc(-c2ccc(Cl)cc2)n1 | 25.6 µM (inactive) | 24.5 µM (inactive) | 16.4 µM (inactive) | 16.6 µM (inactive) | 21.5 µM (inactive) | 21.3 µM (inactive) | 29.2 µM (inactive) | 24.7 µM (inactive) | 28.2 µM (inactive) | 39.1 µM (inactive) | 19.8 µM (inactive) | 24.1 µM (inactive) | 20 µM (inactive) | 16.4 µM (inactive) | 22.2 µM (inactive) | 23 µM (inactive) | 29 µM (inactive) |
| O=C1c2ccccc2C(=O)c2oc(Br)cc21 | 1.78 µM (inactive) | 1.49 µM (inactive) | 1.82 µM (inactive) | 2.12 µM (inactive) | 2.22 µM (inactive) | 2.65 µM (inactive) | 0.34 µM (active) | 0.244 µM (active) | 0.327 µM (active) | 1.67 µM (inactive) | 2.26 µM (inactive) | 1.16 µM (inactive) | 0.544 µM (active) | 0.578 µM (active) | 0.684 µM (active) | 1.24 µM (inactive) | 1.36 µM (inactive) |
| Cc1ccc(C)n1-c1ccccc1C1C=CN(C(=O)OC(C)(C)C)C=C1 | 32.6 µM (inactive) | 19.6 µM (inactive) | 17.3 µM (inactive) | 32.3 µM (inactive) | 27.6 µM (inactive) | 19.7 µM (inactive) | 19.2 µM (inactive) | 27.5 µM (inactive) | 37.8 µM (inactive) | 29.6 µM (inactive) | 25.9 µM (inactive) | 32.7 µM (inactive) | 25.8 µM (inactive) | 16.9 µM (inactive) | 46.3 µM (inactive) | 31.4 µM (inactive) | 15 µM (inactive) |
| C=C1C(=O)C2=CC1CCC(=O)C1(C)CCC(OC(C)=O)C(C)(C)C1CC2O (stereo not drawn) | 1.12 µM (inactive) | 2.23 µM (inactive) | 1.95 µM (inactive) | 0.352 µM (active) | 4.11 µM (inactive) | 4.65 µM (inactive) | 2.42 µM (inactive) | 2.64 µM (inactive) | 3.58 µM (inactive) | 5.32 µM (inactive) | 7.19 µM (inactive) | 3.08 µM (inactive) | 2.27 µM (inactive) | 5 µM (inactive) | 2.1 µM (inactive) | 3.03 µM (inactive) | 1.6 µM (inactive) |
| CN(C)c1ccc(/C=C/c2cc(-c3ccccc3)[n+](C)n2-c2ccccc2)cc1 | 1.44 µM (inactive) | 0.281 µM (active) | 1.64 µM (inactive) | 0.0531 µM (active) | 4.5 µM (inactive) | 0.242 µM (active) | 0.299 µM (active) | 0.0349 µM (active) | 0.0332 µM (active) | 1.6 µM (inactive) | 0.158 µM (active) | 0.0571 µM (active) | 0.481 µM (active) | 0.224 µM (active) | 1.49 µM (inactive) | 0.154 µM (active) | 0.125 µM (active) |
| CC(O)c1cc2c(s1)C(=O)c1c(C(C)O)csc1C2=O (stereo not drawn) | 0.261 µM (active) | 0.187 µM (active) | 0.351 µM (active) | 0.139 µM (active) | 0.146 µM (active) | 0.063 µM (active) | 0.118 µM (active) | 0.0561 µM (active) | 0.318 µM (active) | 0.277 µM (active) | 0.117 µM (active) | 0.19 µM (active) | 0.0589 µM (active) | 0.148 µM (active) | 0.21 µM (active) | 0.152 µM (active) | 0.14 µM (active) |
| Fc1cccc(C2SCC3=Nc4ccccc4CN32)c1 (stereo not drawn) | 36.9 µM (inactive) | 26.8 µM (inactive) | 70.1 µM (inactive) | 88.9 µM (inactive) | 11 µM (inactive) | > 100 µM (inactive) | > 100 µM (inactive) | 20.8 µM (inactive) | > 10 µM (inactive) | 32.1 µM (inactive) | 28.2 µM (inactive) | 92.5 µM (inactive) | 50.2 µM (inactive) | 13.4 µM (inactive) | 47.5 µM (inactive) |  | 27.8 µM (inactive) |
